“Also recorded” adds a separate entry of the source.
T1: TIKI2N (Homo sapiens, UniProt A6NFA1)
T1 construct: which is the extracellular domain of TIKI2 fused with a carboxyl FLAG tag and a 6×HIS tag; made in house; host or cells: HEK293T
T1 sequence (A6NFA1 20-486 limits assumed): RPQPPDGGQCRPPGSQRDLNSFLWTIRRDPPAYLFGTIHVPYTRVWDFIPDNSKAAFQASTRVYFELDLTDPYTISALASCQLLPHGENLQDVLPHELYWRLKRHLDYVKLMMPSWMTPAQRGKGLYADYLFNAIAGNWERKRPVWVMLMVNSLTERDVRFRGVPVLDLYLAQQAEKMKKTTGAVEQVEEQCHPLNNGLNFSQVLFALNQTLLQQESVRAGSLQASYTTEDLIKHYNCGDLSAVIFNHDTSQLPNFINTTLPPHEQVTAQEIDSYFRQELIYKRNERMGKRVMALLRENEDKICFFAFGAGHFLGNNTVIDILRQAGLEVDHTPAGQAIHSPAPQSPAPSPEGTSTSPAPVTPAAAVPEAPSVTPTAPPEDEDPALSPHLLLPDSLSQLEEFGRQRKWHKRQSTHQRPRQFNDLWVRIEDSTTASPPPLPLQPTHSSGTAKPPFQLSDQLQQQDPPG


Tests used:
[1] = biological target: T1, TIKI2N; assay: In vitro treatment of HA-Wnt3a with purified TIKI2N (cleavage, Western blotting); assay type: biochemical; conditions: for TIKI2N activity (cleavage of HA-Wnt3a) in the presence of protease inhibitor / Effects of divalent metals on TIKI2N activity: in vitro; for TIKI2N activity (cleavage of HA-Wnt3a) in the presence of protease inhibitor: purified TIKI2N + recombinant HA-Wnt3a, Western blotting; for Rescue of TIKI2N activity with divalent metals after inhibition with 1,10-Phenanthroline: 20 μM 1,10-Phenanthroline 1 hr, then 50 μM metal ion for another 2 hrs; for Effects of divalent metals on TIKI2N activity: 50 μM of each divalent metal ion, 2 hrs
Procedure: HEK293T cells in 100 mm dishes were transfected with TIKI2N-, KRM2N-, TIKI2NΔ-FLAG-6×HIS (“6×HIS” disclosed as SEQ ID NO: 57) or HA-Wnt3a vectors. The medium containing transfection mixture was replaced with 6 ml fresh medium 24 hrs post-transfection, and incubated for another 24 hrs. To purify TIKI2N, KRM2N and TIKI2NΔ, cells were washed with PBS and lysed in ice-cold PBS containing 0.2% NP-40, 20 mM imidazole and the protease inhibitor cocktail (Roche) to make whole cell lysates (WCL). WCL was mixed with Ni-NTA agarose beads (QIAGEN) and incubated at 4° C. with rotation for 1 hr. The beads were pelleted by centrifugation and washed four times with PBS/0.2% NP-40 and the FLAG-6×HIS (“6×HIS” disclosed as SEQ ID NO: 57) fusion proteins were eluted with PBS/0.2% NP-40 containing 100 mM imidazole. The elute was diluted 3 time with PBS/0.2% NP-40 and were mixed with FLAG M2 agarose beads (Sigma). Following 2 hrs incubation with rotation at 4° C., the beads were pelleted by centrifugation and washed three times with PBS/0.2% NP-40 and one time with HEPES buffer (50 mM HEPES (pH 7.4), 100 mM NaCl, 0.2% NP-40). The FLAG fusion proteins were eluted with HEPES buffer containing 50 μg/ml 3×FLAG peptide. To purify HA-Wnt3a, the conditioned medium (CM) was collected and was cleared by centrifugation and 0.2% NP-40 was added. The CM was mixed with anti-HA agarose beads (Sigma). Following 2 hrs incubation with rotation at 4° C., the beads were pelleted by centrifugation and washed three times with PBS/0.2% NP-40 and one time with HEPES buffer (50 mM HEPES (pH 7.4), 100 mM NaCl, 0.2% NP-40). The HA-Wnt3a protein was eluted with HEPES buffer containing 300 μg/ml HA peptide.
About 50 ng purified TIKI2N, KRM2N, or TIKI2NΔ protein was mixed with 10 ng purified HA-Wnt3a in a total volume of 10 μl HEPES buffer (50 mM HEPES (pH 7.4), 100 mM NaCl, 0.2% NP-40) and incubated at 30° C. To examine TIKI2N activity in different pH conditions, the following buffer was used instead of HEPES, 100 mM sodium acetate (pH 5.5), 100 mM Tris-HCl (pH 6, 7, 8, 9) or 50 mM CAPS (pH 10, 11). The reaction product was analyzed by SDS-PAGE and Western blotting with anti-HA and anti-Wnt3a antibodies. For mass spectrometric analysis, 200 ng of recombinant Wnt3a (from Stem RD) was incubated with about 500 ng of TIKIN or KRM2N overnight at 30° C. and separated by SDS-PAGE. The Wnt3a bands were cut, trypsin digested and subjected to mass spectrometric analyses.
TIKI protease activity was characterized under in vitro conditions. […] Different protease inhibitors were applied to survey which protease family TIKI might belong to. […] Metalloproteases are defined by their dependence on divalent metals as co-factors (Barrett, 1998).

[2] = test system: Wnt3a; assay: TOPFLASH assay of TIKI2N mutants co-transfected with Wnt3a in HEK293T cells; assay type: cell-based, human; conditions: 5, 2.5, 1.25 and 0.612 ng plasmid with Wnt3a 20 ng
Procedure: FIG. 8B. Bar graph showing the results of a TOPFLASH assay testing TIKI2 mutations in Human TIKI2N construct (no transmembrane domain). Decreasing doses of 5, 2.5, 1.25 and 0.612 ng of the indicated TIKI2N expression plasmid were cotransfected with Wnt3a (20 ng) in HEK293T cells.
HEK293T, HeLa, L and L-Wnt3a cells (from ATCC) were maintained in Dulbecco's modified Eagle's medium (DMEM; Invitrogen) supplemented with 10% fetal bovine serum (FBS) and 1% penicillin-streptomycin-glutamine (Invitrogen). Lipofectamine 2000 (Invitrogen) or Fugene6 (Roche) was used for all cell transfections. L and L-Wnt3a cells that stably express TIKI2 were generated by infecting cells with retroviruses and selected by puromycin. L cells stably expressing Wnt3a(FLAG) were established by transfecting L cells with a Wnt3a(FLAG) expressing vector and selected with neomycine. L cells stably expressing both Wnt3a(FLAG) and TIKI2 were also generated. TOPFLASH reporter assay was performed as previously described (MacDonald et al., 2008).
A Wnt-responsive reporter (TOP-FLASH) assay was performed to test mutations at T56A, H58A, E85A, E205A, H256A, R303A, H331A in a Human TIKI2N construct (no transmembrane domain). Decreasing doses of 5, 2.5, 1.25 and 0.612 ng of the indicated TIKI2N expression plasmid were co-transfected with Wnt3a (20 ng) in HEK293T cells. […] T56A, H256A, and R303A had no effect on TIM activity, and so are likely to be less important sites for function.

Molecule | Effects of divalent metals on TIKI2N activity [1] | TIKI activity of TIKI2N mutants (inhibition of Wnt3a-induced TOPFLASH) [2] | other results
c1cnc2c(c1)ccc1cccnc12 [1,10-phenanthroline] |  |  | TIKI2N activity (cleavage of HA-Wnt3a) in the presence of protease inhibitor [1]: potently inhibited; TIKI2N activity (cleavage of HA-Wnt3a) in the presence of protease inhibitor ([1]; listed as 1, 10-Phenanthroline): sensitive
CC(C)C[C@H](NC(=O)[C@@H](O)[C@H](N)Cc1ccccc1)C(=O)O [Bestatin] |  |  | TIKI2N activity (cleavage of HA-Wnt3a) in the presence of protease inhibitor [1]: not
[Co+2] [Co^2+] | enhanced |  | Rescue of TIKI2N activity with divalent metals after inhibition with 1,10-Phenanthroline [1]: rescued; also recorded: fully restored
[Cu+2] [Cu^2+] | inhibited TIKI2N activity |  | 
O=C(O)CN(CCN(CC(=O)O)CC(=O)O)CC(=O)O [EDTA] |  |  | TIKI2N activity (cleavage of HA-Wnt3a) in the presence of protease inhibitor [1]: inhibited TIKI2N activity; also recorded: inhibited, albeit more mildly
[Mn+2] [Mn^2+] | enhanced |  | Rescue of TIKI2N activity with divalent metals after inhibition with 1,10-Phenanthroline [1]: rescued; also recorded: fully restored
[Ni+2] [Ni^2+] | inhibited TIKI2N activity |  | 
[Zn+2] [Zn^2+] | inhibited TIKI2N activity |  | 
H58A: alanine mutation in Human TIKI2N construct (no transmembrane domain) (protein, UniProt A6NFA1 20-494, looked up, variant H58A, extracellular domain) extracellular domain: RPQPPDGGQCRPPGSQRDLNSFLWTIRRDPPAYLFGTIAVPYTRVWDFIPDNSKAAFQASTRVYFELDLTDPYTISALASCQLLPHGENLQDVLPHELYWRLKRHLDYVKLMMPSWMTPAQRGKGLYADYLFNAIAGNWERKRPVWVMLMVNSLTERDVRFRGVPVLDLYLAQQAEKMKKTTGAVEQVEEQCHPLNNGLNFSQVLFALNQTLLQQESVRAGSLQASYTTEDLIKHYNCGDLSAVIFNHDTSQLPNFINTTLPPHEQVTAQEIDSYFRQELIYKRNERMGKRVMALLRENEDKICFFAFGAGHFLGNNTVIDILRQAGLEVDHTPAGQAIHSPAPQSPAPSPEGTSTSPAPVTPAAAVPEAPSVTPTAPPEDEDPALSPHLLLPDSLSQLEEFGRQRKWHKRQSTHQRPRQFNDLWVRIEDSTTASPPPLPLQPTHSSGTAKPPFQLSDQLQQQDPPGPASSSAPT |  | inactive | 
E205A: alanine mutation in Human TIKI2N construct (no transmembrane domain) (protein, UniProt A6NFA1 20-494, looked up, variant E205A, extracellular domain) extracellular domain: RPQPPDGGQCRPPGSQRDLNSFLWTIRRDPPAYLFGTIHVPYTRVWDFIPDNSKAAFQASTRVYFELDLTDPYTISALASCQLLPHGENLQDVLPHELYWRLKRHLDYVKLMMPSWMTPAQRGKGLYADYLFNAIAGNWERKRPVWVMLMVNSLTERDVRFRGVPVLDLYLAQQAEKMKKTTGAVAQVEEQCHPLNNGLNFSQVLFALNQTLLQQESVRAGSLQASYTTEDLIKHYNCGDLSAVIFNHDTSQLPNFINTTLPPHEQVTAQEIDSYFRQELIYKRNERMGKRVMALLRENEDKICFFAFGAGHFLGNNTVIDILRQAGLEVDHTPAGQAIHSPAPQSPAPSPEGTSTSPAPVTPAAAVPEAPSVTPTAPPEDEDPALSPHLLLPDSLSQLEEFGRQRKWHKRQSTHQRPRQFNDLWVRIEDSTTASPPPLPLQPTHSSGTAKPPFQLSDQLQQQDPPGPASSSAPT |  | inactive | 
H331A: alanine mutation in Human TIKI2N construct (no transmembrane domain) (protein, UniProt A6NFA1 20-494, looked up, variant H331A, extracellular domain) extracellular domain: RPQPPDGGQCRPPGSQRDLNSFLWTIRRDPPAYLFGTIHVPYTRVWDFIPDNSKAAFQASTRVYFELDLTDPYTISALASCQLLPHGENLQDVLPHELYWRLKRHLDYVKLMMPSWMTPAQRGKGLYADYLFNAIAGNWERKRPVWVMLMVNSLTERDVRFRGVPVLDLYLAQQAEKMKKTTGAVEQVEEQCHPLNNGLNFSQVLFALNQTLLQQESVRAGSLQASYTTEDLIKHYNCGDLSAVIFNHDTSQLPNFINTTLPPHEQVTAQEIDSYFRQELIYKRNERMGKRVMALLRENEDKICFFAFGAGAFLGNNTVIDILRQAGLEVDHTPAGQAIHSPAPQSPAPSPEGTSTSPAPVTPAAAVPEAPSVTPTAPPEDEDPALSPHLLLPDSLSQLEEFGRQRKWHKRQSTHQRPRQFNDLWVRIEDSTTASPPPLPLQPTHSSGTAKPPFQLSDQLQQQDPPGPASSSAPT |  | inactive | 
E85A: alanine mutation in Human TIKI2N construct (no transmembrane domain) (protein, UniProt A6NFA1 20-494, looked up, variant E85A, extracellular domain) extracellular domain: RPQPPDGGQCRPPGSQRDLNSFLWTIRRDPPAYLFGTIHVPYTRVWDFIPDNSKAAFQASTRVYFALDLTDPYTISALASCQLLPHGENLQDVLPHELYWRLKRHLDYVKLMMPSWMTPAQRGKGLYADYLFNAIAGNWERKRPVWVMLMVNSLTERDVRFRGVPVLDLYLAQQAEKMKKTTGAVEQVEEQCHPLNNGLNFSQVLFALNQTLLQQESVRAGSLQASYTTEDLIKHYNCGDLSAVIFNHDTSQLPNFINTTLPPHEQVTAQEIDSYFRQELIYKRNERMGKRVMALLRENEDKICFFAFGAGHFLGNNTVIDILRQAGLEVDHTPAGQAIHSPAPQSPAPSPEGTSTSPAPVTPAAAVPEAPSVTPTAPPEDEDPALSPHLLLPDSLSQLEEFGRQRKWHKRQSTHQRPRQFNDLWVRIEDSTTASPPPLPLQPTHSSGTAKPPFQLSDQLQQQDPPGPASSSAPT |  | inactive | 
